Tests used:
60 cancer cell lines = test: NCI-60 one-dose screen (10 μM); type: cell-based; conditions: Homo sapiens; one dose of 10 μM, mean over 60 cancer cell lines; read-out: Mean Growth Percent (MGP)
From the text: Additionally, the mean of the growth percentages (MGP) of each compound against all the 60 cancer cell lines is also reported, which is used as one of the selection criteria to continue with tests at five concentration doses.

MOLT-4 = test: cells; conditions: Homo sapiens, MOLT-4, 48 h; for CC50: read-out: LC50
RPMI-8226 = test: cells; conditions: Homo sapiens, RPMI-8226, 48 h; for CC50: read-out: LC50
SR = test: cells; conditions: Homo sapiens, 48 h; for CC50: read-out: LC50
A549/ATCC = test: cells; conditions: Homo sapiens, A549, 48 h; for CC50: read-out: LC50
HOP-92 = test: cells; conditions: Homo sapiens, HOP-92, 48 h; for CC50: read-out: LC50
NCI-H226 = test: cells; conditions: Homo sapiens, NCI-H226, 48 h; for CC50: read-out: LC50
NCI-H522 = test: cells; conditions: Homo sapiens, NCI-H522, 48 h; for CC50: read-out: LC50
HCT-116 = test: cells; conditions: Homo sapiens, HCT-116, 48 h; for CC50: read-out: LC50
SW-620 = test: cells; conditions: Homo sapiens, SW-620, 48 h; for CC50: read-out: LC50
SNB-19 = test: cells; conditions: Homo sapiens, SNB-19, 48 h; for CC50: read-out: LC50
U251 = test: cells; conditions: Homo sapiens, U-251, 48 h; for GI50: U251, 48 h; for CC50: read-out: LC50
LOX IMVI = test: cells; conditions: Homo sapiens, 48 h; for CC50: read-out: LC50, LOX IMVI, 48 h
MDA-MB-435 = test: cells; conditions: Homo sapiens, MDA-MB-435, 48 h; for CC50: read-out: LC50
SK-MEL-2 = test: cells; conditions: Homo sapiens, SK-MEL-2, 48 h; for CC50: read-out: LC50
IGROV1 = test: cells; conditions: Homo sapiens, IGROV-1, 48 h; for CC50: read-out: LC50
NCI/ADR-RES = test: cells; conditions: Homo sapiens, 48 h; for CC50: read-out: LC50
ACHN = test: cells; conditions: Homo sapiens, 48 h; for CC50: read-out: LC50
PC-3 = test: cells; conditions: Homo sapiens, PC-3, 48 h; for CC50: read-out: LC50
DU-145 = test: cells; conditions: Homo sapiens, DU-145, 48 h; for CC50: read-out: LC50
MDA-MB-231/ATCC = test: cells; conditions: Homo sapiens, MDA-MB-231, 48 h; for CC50: read-out: LC50
BT-549 = test: cells; conditions: Homo sapiens, BT-549, 48 h; for CC50: read-out: LC50
T-47D = test: cells; conditions: Homo sapiens, T47D, 48 h; for CC50: read-out: LC50
NCI-H23 = test: cells; conditions: Homo sapiens, NCI-H23, 48 h

For `Nc1nc(N)c2c(n1)NC(c1ccc(Cl)cc1)CC(c1ccc(Nc3nc(NCCO)nc(Nc4ccc(Cl)cc4)n3)cc1)=N2` (stereo not drawn) [33e], which activity at 10 µM (60 cancer cell lines) is on record?
The activity at 10 µM was 30.5%.

What about the GI50 (MOLT-4) of the same compound?
The GI50 was 0.79 µM.

What about the CC50 (MOLT-4) of the same compound?
Its CC50 is over 100 µM.

And the GI50 (RPMI-8226)?
The GI50 was 1.44 µM.

What about the GI50 (SR) of the same compound?
The GI50 was 0.91 µM.

What about the CC50 (SR) of the same compound?
Its CC50 is over 100 µM.

And the GI50 (A549/ATCC)?
The GI50 was 4.12 µM.

And the CC50 (A549/ATCC)?
Its CC50 is over 100 µM.

What about the GI50 (HOP-92) of the same compound?
Its GI50 is 1.29 µM.

And the CC50 (HOP-92)?
The CC50 was 7.54 µM.

And the GI50 (NCI-H226)?
Its GI50 is 6.47 µM.

What about the CC50 (NCI-H226) of the same compound?
Its CC50 is over 100 µM.

And the GI50 (NCI-H522)?
The GI50 was 1.56 µM.

What about the CC50 (NCI-H522) of the same compound?
The CC50 was 6.41 µM.

And the GI50 (HCT-116)?
The GI50 was 1.4 µM.

And the CC50 (HCT-116)?
Its CC50 is 5.19 µM.

And the GI50 (SW-620)?
The GI50 was 1.62 µM.

What about the CC50 (SW-620) of the same compound?
The CC50 was 6.72 µM.

And the GI50 (SNB-19)?
Its GI50 is 1.99 µM.

And the CC50 (SNB-19)?
Its CC50 is 21.4 µM.

What about the GI50 (U251) of the same compound?
Its GI50 is 1.47 µM.

What about the CC50 (U251) of the same compound?
Its CC50 is 5.81 µM.

And the GI50 (LOX IMVI)?
The GI50 was 1.45 µM.

What about the CC50 (LOX IMVI) of the same compound?
The CC50 was 5.63 µM.

And the GI50 (MDA-MB-435)?
The GI50 was 1.63 µM.

And the CC50 (MDA-MB-435)?
Its CC50 is 6.2 µM.

And the GI50 (SK-MEL-2)?
Its GI50 is 1.45 µM.

And the CC50 (SK-MEL-2)?
Its CC50 is 5.53 µM.

And the GI50 (IGROV1)?
Its GI50 is 1.71 µM.

And the CC50 (IGROV1)?
Its CC50 is 7.46 µM.

What about the GI50 (NCI/ADR-RES) of the same compound?
The GI50 was 4.24 µM.

What about the CC50 (NCI/ADR-RES) of the same compound?
Its CC50 is over 100 µM.

And the GI50 (ACHN)?
Its GI50 is 4.69 µM.

And the CC50 (ACHN)?
Its CC50 is over 100 µM.

What about the GI50 (PC-3) of the same compound?
Its GI50 is 1.93 µM.

What about the CC50 (PC-3) of the same compound?
The CC50 was over 100 µM.

What about the GI50 (DU-145) of the same compound?
Its GI50 is 2.22 µM.

What about the CC50 (DU-145) of the same compound?
Its CC50 is 22.8 µM.

And the GI50 (MDA-MB-231/ATCC)?
The GI50 was 1.75 µM.

And the CC50 (MDA-MB-231/ATCC)?
The CC50 was 8.82 µM.

What about the GI50 (BT-549) of the same compound?
The GI50 was 2.25 µM.

What about the CC50 (BT-549) of the same compound?
Its CC50 is 23.5 µM.

And the GI50 (T-47D)?
Its GI50 is 1.71 µM.

And the CC50 (T-47D)?
The CC50 was 54.6 µM.

What does the source list for `CN(C)c1nc(NCCNS(=O)(=O)c2ccc(C(=O)/C=C/c3ccc(C(F)(F)F)cc3)cc2)nc(N2CCOCC2)n1` [23g]?
activity at 10 µM (60 cancer cell lines): -14.8%; GI50 (MOLT-4): 3.48 µM; CC50 (MOLT-4): > 100 µM; GI50 (RPMI-8226): 1.77 µM; CC50 (RPMI-8226): > 100 µM; GI50 (SR): 6.31 µM; CC50 (SR): > 100 µM; GI50 (A549/ATCC): 13.8 µM; CC50 (A549/ATCC): 62.3 µM; GI50 (HOP-92): 15.2 µM; CC50 (HOP-92): 65.2 µM; GI50 (NCI-H226): 16.1 µM; CC50 (NCI-H226): 78.9 µM; GI50 (NCI-H23): 13 µM; CC50 (NCI-H23; read-out: LC50): 52.6 µM; GI50 (NCI-H522): 15.2 µM; CC50 (NCI-H522): 58.2 µM; GI50 (HCT-116): 3.19 µM; CC50 (HCT-116): 33.5 µM; GI50 (SW-620): 3.3 µM; CC50 (SW-620): 36.5 µM; GI50 (SNB-19): 13.5 µM; CC50 (SNB-19): 51.3 µM; GI50 (U251): 2.95 µM; CC50 (U251): 40.7 µM; GI50 (LOX IMVI): 1.68 µM; CC50 (LOX IMVI): 5.94 µM; GI50 (MDA-MB-435): 10.3 µM; CC50 (MDA-MB-435): 51.1 µM; GI50 (SK-MEL-2): 16.3 µM; CC50 (SK-MEL-2): 56.7 µM; GI50 (IGROV1): 1.77 µM; CC50 (IGROV1): 6.97 µM; GI50 (ACHN): 8.6 µM; CC50 (ACHN): 45.5 µM; GI50 (PC-3): 10.8 µM; CC50 (PC-3): 60 µM; GI50 (DU-145): 15.4 µM; CC50 (DU-145): 54.5 µM; GI50 (MDA-MB-231/ATCC): 11.7 µM; CC50 (MDA-MB-231/ATCC): 50.3 µM; GI50 (BT-549): 15.6 µM; CC50 (BT-549): 54.9 µM; GI50 (T-47D): 5.5 µM; CC50 (T-47D): > 100 µM

How did the activity at 10 µM (60 cancer cell lines) turn out when `COc1cc(/C=C/C(=O)c2ccc(C)cc2)ccc1Oc1nc(NCCO)nc(N2CCOCC2)n1` [20b] was run?
The activity at 10 µM was 48.9%.

And the GI50 (MOLT-4)?
The GI50 was 2.09 µM.

What about the CC50 (MOLT-4) of the same compound?
Its CC50 is over 100 µM.

What about the GI50 (RPMI-8226) of the same compound?
Its GI50 is 1.72 µM.

What about the CC50 (RPMI-8226) of the same compound?
Its CC50 is over 100 µM.

And the GI50 (SR)?
Its GI50 is 1.06 µM.

What about the CC50 (SR) of the same compound?
The CC50 was over 100 µM.

What about the GI50 (A549/ATCC) of the same compound?
Its GI50 is 9.47 µM.

And the CC50 (A549/ATCC)?
The CC50 was over 100 µM.

And the GI50 (HOP-92)?
Its GI50 is 8.4 µM.

And the CC50 (HOP-92)?
The CC50 was over 100 µM.

And the GI50 (NCI-H226)?
The GI50 was 6.28 µM.

And the CC50 (NCI-H226)?
Its CC50 is over 100 µM.

And the GI50 (NCI-H522)?
Its GI50 is 1.56 µM.

And the GI50 (HCT-116)?
The GI50 was 1.73 µM.

And the GI50 (SW-620)?
Its GI50 is 1.64 µM.

And the CC50 (SW-620)?
The CC50 was over 100 µM.

What about the GI50 (SNB-19) of the same compound?
Its GI50 is 2.45 µM.

And the CC50 (SNB-19)?
Its CC50 is over 100 µM.

What about the GI50 (U251) of the same compound?
The GI50 was 1.62 µM.

And the GI50 (LOX IMVI)?
The GI50 was 0.43 µM.

And the CC50 (LOX IMVI)?
Its CC50 is 4.09 µM.

What about the GI50 (MDA-MB-435) of the same compound?
Its GI50 is 3.31 µM.

What about the CC50 (MDA-MB-435) of the same compound?
Its CC50 is over 100 µM.

What about the GI50 (SK-MEL-2) of the same compound?
The GI50 was 8.17 µM.

And the CC50 (SK-MEL-2)?
Its CC50 is over 100 µM.

What about the GI50 (IGROV1) of the same compound?
The GI50 was 3.1 µM.

What about the CC50 (IGROV1) of the same compound?
The CC50 was over 100 µM.

What about the GI50 (NCI/ADR-RES) of the same compound?
The GI50 was 2.08 µM.

What about the CC50 (NCI/ADR-RES) of the same compound?
Its CC50 is over 100 µM.

What about the GI50 (ACHN) of the same compound?
The GI50 was 1.94 µM.

What about the GI50 (PC-3) of the same compound?
Its GI50 is 2.53 µM.

What about the CC50 (PC-3) of the same compound?
Its CC50 is over 100 µM.

What about the GI50 (DU-145) of the same compound?
The GI50 was 3.79 µM.

And the CC50 (DU-145)?
Its CC50 is over 100 µM.

What about the GI50 (MDA-MB-231/ATCC) of the same compound?
The GI50 was 2.98 µM.

And the CC50 (MDA-MB-231/ATCC)?
The CC50 was over 100 µM.

What about the GI50 (BT-549) of the same compound?
Its GI50 is 1.62 µM.

What about the GI50 (T-47D) of the same compound?
The GI50 was 2.98 µM.

What about the CC50 (T-47D) of the same compound?
The CC50 was over 100 µM.

— publication PMC11012124, “Synthesis of Novel Triazine-Based Chalcones and 8,9-dihydro-7H-pyrimido[4,5-b][1,4]diazepines as Potential Leads in the Search of Anticancer, Antibacterial and Antifungal Agents” (International Journal of Molecular Sciences, 2024)
